Key:
recombinant human FAAH = target: T1, recombinant human FAAH (Homo sapiens, UniProt O00519); test: FAAH inhibition, 30 min preincubation, AMC substrate; format: biochemical; details: 30 min preincubation with recombinant human FAAH and AMC; read-out: Apparent IC50s
T1 sequence (O00519 1-579): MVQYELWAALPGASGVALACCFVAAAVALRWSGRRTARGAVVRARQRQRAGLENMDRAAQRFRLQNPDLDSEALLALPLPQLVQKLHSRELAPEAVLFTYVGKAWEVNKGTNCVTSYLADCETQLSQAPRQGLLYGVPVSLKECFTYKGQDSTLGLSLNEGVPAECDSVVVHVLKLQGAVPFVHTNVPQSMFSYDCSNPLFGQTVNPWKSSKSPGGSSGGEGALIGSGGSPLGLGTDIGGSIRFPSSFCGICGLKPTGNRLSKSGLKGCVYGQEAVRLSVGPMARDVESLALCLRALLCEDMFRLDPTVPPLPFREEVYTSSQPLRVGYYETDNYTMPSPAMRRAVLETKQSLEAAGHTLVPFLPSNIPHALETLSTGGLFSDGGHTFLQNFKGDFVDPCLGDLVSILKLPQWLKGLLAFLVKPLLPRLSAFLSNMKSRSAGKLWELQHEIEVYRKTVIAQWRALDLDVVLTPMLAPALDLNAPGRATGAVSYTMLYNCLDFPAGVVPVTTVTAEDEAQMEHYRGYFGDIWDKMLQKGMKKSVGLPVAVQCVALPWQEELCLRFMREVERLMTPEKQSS

FAAH = target: T2, FAAH (Mus musculus, UniProt O08914); test: tissue distribution after co-dosing prodrug ABX-002 with or without PFI or GFI; format: in vivo, mice; details: for Distribution: peripheral or global FAAH inhibitor
T2 construct: from tissue; host or cells: living mice; plasma, liver and brain sampled
T2 sequence (O08914 1-579): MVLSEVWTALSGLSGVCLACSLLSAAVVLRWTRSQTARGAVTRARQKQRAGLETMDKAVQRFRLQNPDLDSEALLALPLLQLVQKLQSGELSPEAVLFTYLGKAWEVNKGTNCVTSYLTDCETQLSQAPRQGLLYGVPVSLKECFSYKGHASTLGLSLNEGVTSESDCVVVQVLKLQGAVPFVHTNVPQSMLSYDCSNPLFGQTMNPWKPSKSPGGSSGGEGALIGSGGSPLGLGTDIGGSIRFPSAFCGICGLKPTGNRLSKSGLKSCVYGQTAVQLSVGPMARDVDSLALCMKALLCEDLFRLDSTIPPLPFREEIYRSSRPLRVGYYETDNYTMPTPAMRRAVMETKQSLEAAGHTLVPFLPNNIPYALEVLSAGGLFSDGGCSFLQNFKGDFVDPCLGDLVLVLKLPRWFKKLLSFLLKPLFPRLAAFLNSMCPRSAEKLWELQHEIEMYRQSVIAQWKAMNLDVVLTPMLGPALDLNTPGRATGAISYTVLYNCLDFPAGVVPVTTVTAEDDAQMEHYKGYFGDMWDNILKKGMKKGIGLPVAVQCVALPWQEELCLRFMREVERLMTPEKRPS
Procedure: The ability of globally-penetrant and peripherally-restricted FAAH inhibitors (GFI & PFI, respectively) to alter distribution of ABX-002 and ABX-002A was assessed.
Table 5 depicts the inhibition of active metabolite (LL-650177 or PF-044578454) in AUC in the plasma, liver, and brain after prodrug (ABX-002) co-dosing. Tissue distribution studies in mice confirm global & peripheral inhibition of FAAH.

inhibition of active metabolite AUC, Brain (FAAH; ABX-002A AUC after ABX-002 co-dosing, mice, brain) [%]	inhibition of active metabolite AUC, Liver (FAAH; ABX-002A AUC after ABX-002 co-dosing, mice, liver) [%]	inhibition of active metabolite AUC, Plasma (FAAH; ABX-002A AUC after ABX-002 co-dosing, mice, plasma) [%]	Structure (SMILES)	IC50 (recombinant human FAAH) [nM]	Distribution (FAAH)
–	–	–	NC(=O)c1cccc(-c2cc(OC(=O)NC3CCCCC3)ccc2O)c1 [URB937]	69	Peripheral
83	94	94	O=C(Nc1cccnn1)N1CCC(=Cc2cccc(Oc3ccc(C(F)(F)F)cn3)c2)CC1 [PF-04457845]	3	Global
